Measured values taken from the NIST ThermoML archive (doi:10.1021/je200668a).

Conditions: Liquid, Pulse Transmission

O [water]
Conditions | speed of sound [m/s]
318.1 K, 349600 kPa | 2061
318.1 K, 449800 kPa | 2181.8
318.11 K, 150100 kPa | 1787.1
318.11 K, 160100 kPa | 1802.4
318.11 K, 250600 kPa | 1930.2
318.12 K, 50400 kPa | 1623.1
318.12 K, 299900 kPa | 1996.4
318.12 K, 599100 kPa | 2350.3
318.12 K, 599600 kPa | 2346.3
318.12 K, 641800 kPa | 2388.1
318.13 K, 250400 kPa | 1930.2
318.13 K, 399600 kPa | 2121.7
318.14 K, 111200 kPa | 1725.7
318.14 K, 449700 kPa | 2182.1
318.14 K, 701800 kPa | 2454.2
318.15 K, 250000 kPa | 1930.6
318.15 K, 651000 kPa | 2405.8
318.16 K, 100 kPa | 1530.9
318.16 K, 401300 kPa | 2123.6
318.16 K, 549200 kPa | 2297.1
318.16 K, 559300 kPa | 2305.4
318.17 K, 50000 kPa | 1622.5
318.17 K, 499100 kPa | 2239.1
318.17 K, 499800 kPa | 2240.9
318.17 K, 549400 kPa | 2295.5
318.18 K, 450600 kPa | 2183.6
318.18 K, 702400 kPa | 2453.8
318.19 K, 200200 kPa | 1861.8
318.19 K, 499900 kPa | 2239.9
318.19 K, 651200 kPa | 2401.2
318.19 K, 701700 kPa | 2454.7
318.21 K, 99700 kPa | 1706.9
318.21 K, 602100 kPa | 2348.1
318.22 K, 150400 kPa | 1788.9
318.26 K, 49100 kPa | 1621.2
327.92 K, 641400 kPa | 2396.1
327.96 K, 560500 kPa | 2312.8
327.97 K, 701700 kPa | 2451.4
328.07 K, 550700 kPa | 2301.2
328.08 K, 109200 kPa | 1735.6
328.08 K, 350700 kPa | 2075.4
328.08 K, 499600 kPa | 2246.7
328.1 K, 150000 kPa | 1799.2
328.12 K, 100100 kPa | 1720.7
328.13 K, 200200 kPa | 1875.4
328.14 K, 50900 kPa | 1636.9
328.14 K, 300800 kPa | 2013.9
328.14 K, 450900 kPa | 2192
328.15 K, 300000 kPa | 2015.6
328.16 K, 159900 kPa | 1816
328.16 K, 351700 kPa | 2077.1
328.16 K, 399700 kPa | 2133
328.16 K, 499400 kPa | 2246.5
328.16 K, 601200 kPa | 2355.9
328.16 K, 601900 kPa | 2353.3
328.16 K, 700100 kPa | 2453.2
328.17 K, 50600 kPa | 1636.4
328.17 K, 200900 kPa | 1876.4
328.18 K, 250700 kPa | 1946.5
328.19 K, 100 kPa | 1541.1
328.19 K, 250700 kPa | 1947.4
328.21 K, 449800 kPa | 2189.2
328.21 K, 652700 kPa | 2406.9
328.22 K, 400100 kPa | 2137.3
328.27 K, 100 kPa | 1542.1
328.49 K, 99800 kPa | 1720.6
328.66 K, 650700 kPa | 2404.5
328.69 K, 300000 kPa | 2012.1
328.72 K, 200100 kPa | 1874.3
328.72 K, 400500 kPa | 2138.4
328.72 K, 551000 kPa | 2304.7
328.73 K, 50900 kPa | 1637.5
328.74 K, 449200 kPa | 2194.3
328.76 K, 100 kPa | 1543.9
328.76 K, 601300 kPa | 2354.9
328.77 K, 350900 kPa | 2076.6
328.77 K, 700400 kPa | 2453.8
328.83 K, 150100 kPa | 1799.9
328.9 K, 250100 kPa | 1944.4
328.92 K, 499400 kPa | 2250.4
337.66 K, 150000 kPa | 1810.9
337.69 K, 350500 kPa | 2086.1
337.69 K, 399100 kPa | 2142.9
337.75 K, 200500 kPa | 1886
337.8 K, 501100 kPa | 2260
337.85 K, 300700 kPa | 2024
337.87 K, 50100 kPa | 1643.6
337.95 K, 100500 kPa | 1731.6
338.02 K, 100 kPa | 1547.4
338.04 K, 601100 kPa | 2360.1
338.07 K, 650600 kPa | 2410.2
338.12 K, 451000 kPa | 2203.4
338.15 K, 250300 kPa | 1956.7
338.22 K, 549600 kPa | 2309.8
338.22 K, 700800 kPa | 2455.7
349.03 K, 601700 kPa | 2366
349.12 K, 500600 kPa | 2267.1
349.18 K, 49900 kPa | 1647.8
349.19 K, 100 kPa | 1549
349.22 K, 150700 kPa | 1818.4
349.22 K, 300400 kPa | 2029.7
349.27 K, 549200 kPa | 2313.8
349.28 K, 400700 kPa | 2153
349.3 K, 250900 kPa | 1965
349.32 K, 349800 kPa | 2091.6
349.35 K, 450800 kPa | 2209.4
349.41 K, 100400 kPa | 1737.3
349.59 K, 651400 kPa | 2412.5
349.68 K, 200700 kPa | 1892.8
349.72 K, 704500 kPa | 2445.1
